{
  "source": "patent US20250255941A1",
  "about": "(priority 2021, published 2025)",
  "key": {"Keratinocytes": {"test_system": "Keratinocytes", "conditions": "5 μM"}, "prostaglandin F2a": {"test_system": "prostaglandin F2a", "type": "cell-based", "conditions": "5 μM"}},
  "note": "Values joined by “and” are separate entries in the source; they are usually repeats but may differ in a detail not shown here. Identical values can stand only once.",
  "data": [
    {"smiles": "CS(=O)(=O)Nc1ccc([N+](=O)[O-])cc1OC1CCCCC1", "note": "[NS-398]", "values": [
      {"measurement": "Cytotoxicity test (MTT), % of control", "setting": "Keratinocytes", "value": 102.0, "unit": "%"},
      {"measurement": "Cytotoxicity test (MTT), Mean", "setting": "Keratinocytes", "value": 0.8720},
      {"measurement": "Absorbance value (405 nm), individual measurements (n=4)", "setting": "prostaglandin F2a", "value": "0.6170 and 0.6000 and 0.6110 and 0.6220"},
      {"measurement": "PGF2alpha (pg/mL), individual measurements (n=4)", "setting": "prostaglandin F2a", "value": "70.9 pg/mL and 86.8 pg/mL and 76.1 pg/mL and 66.8 pg/mL"},
      {"measurement": "PGF2alpha (pg/mL)/MTT, Mean", "setting": "prostaglandin F2a", "value": "86.3 (pg/mL)/MTT"},
      {"measurement": "PGF2alpha (pg/mL)/MTT, individual measurements (n=4)", "setting": "prostaglandin F2a", "value": "81.5 (pg/mL)/MTT and 101.6 (pg/mL)/MTT and 86.6 (pg/mL)/MTT and 75.4 (pg/mL)/MTT"},
      {"measurement": "prostaglandin F2a expression, % of control", "setting": "prostaglandin F2a", "value": 9.3, "unit": "%"}
    ]}
  ]
}
